The record followed here is patent US4511504A, “Carboxyalkyl peptide derivatives” (G.D. Searle & Co., priority 1983, dated 1985).

The experiment concerns the target T1, Human Rheumatoid Synovial Collagenase (Homo sapiens, UniProt P03956).
T1 construct: Human Rheumatoid Synovial Collagenase; from tissue; host or cells: human rheumatoid synovium (from the name only; the preparation is not described)
T1 sequence (P03956 100-469): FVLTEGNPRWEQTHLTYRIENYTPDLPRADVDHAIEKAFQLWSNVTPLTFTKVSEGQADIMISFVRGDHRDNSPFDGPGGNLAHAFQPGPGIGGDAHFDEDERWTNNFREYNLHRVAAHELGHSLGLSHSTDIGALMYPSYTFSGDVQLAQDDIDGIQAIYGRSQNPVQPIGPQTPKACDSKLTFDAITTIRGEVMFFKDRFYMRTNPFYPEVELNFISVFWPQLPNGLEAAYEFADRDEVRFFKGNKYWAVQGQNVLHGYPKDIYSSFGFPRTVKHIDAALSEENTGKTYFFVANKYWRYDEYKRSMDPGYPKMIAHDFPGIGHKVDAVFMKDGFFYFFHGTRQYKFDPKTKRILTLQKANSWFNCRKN
Nature of the experiment: Collagenase inhibition, procedure of Cawston and Barrett (acetyl 14C collagen hydrolysis). Type of experiment: biochemical. As to conditions: inhibitor concentration effecting 50% inhibition; 37° C., 16 hours, native acetyl 14C collagen, Tris HCl-CaCl2 pH 7.6. As for the experimental part: This was determined following the procedure of Cawston and Barrett, Anal. Biochem., 99, 340-345 (1979) whereby the 1 mM of the inhibitor being tested or dilutions thereof are incubated at 37° C. for 16 hours with native collagen and collagenase (buffered with Tris HCl--CaCl2; pH 7.6). The collagen is acetyl ^14 C collagen. The samples are centrifuged to sediment undigested collagen and an aliquot of the radiactive supernatant removed for assay on a scintillation counter as a measure of hydrolysis. The collagenase activity in the presence of 1 mM inhibitor, or a dilution thereof is compared to activity in a control devoid of inhibitor and the results reported as that inhibitor concentration effecting 50% inhibition of the collagenase.

Molecules are shown by their SMILES.

By IC50 is commonly meant the concentration that inhibits the measured activity by half. As to `CCCCNC(=O)[C@H](C)NC(=O)[C@H](CC(C)(C)C)N[C@H](C)C(=O)O` [Example 23, N-[2-(S)-N-(1-(R)-Carboxyethyl)amino-4,4-dimethylpentanoyl]-L-alanine N-Butylamide], the IC50 was 25 µM.
